Test [1] deals with Leucine-rich repeat serine/threonine-protein kinase 2 (Homo sapiens, UniProt Q5S007). As to the kind of experiment: Inhibition of GST-tagged LRRK2 (1326 to 2527 residues) (unknown origin) using peptide as substrate incubated for 15 mins in presence of ATP by immunoblotting analysis. Background: Immunoblotting shows a protein as a band on a membrane.
In test [2] the target is Leucine-rich repeat serine/threonine-protein kinase 2 (Homo sapiens, UniProt Q5S007, G2019S). In words: Inhibition of GST-tagged LRRK2 G2019S mutant (1326 to 2527 residues) (unknown origin) using peptide as substrate incubated for 15 mins in presence of ATP by immunoblotting analysis.
Sequence of Leucine-rich repeat serine/threonine-protein kinase 2 (Homo sapiens, UniProt Q5S007, G2019S) (Q5S007 whole entry G2019S, the tested form may be a part): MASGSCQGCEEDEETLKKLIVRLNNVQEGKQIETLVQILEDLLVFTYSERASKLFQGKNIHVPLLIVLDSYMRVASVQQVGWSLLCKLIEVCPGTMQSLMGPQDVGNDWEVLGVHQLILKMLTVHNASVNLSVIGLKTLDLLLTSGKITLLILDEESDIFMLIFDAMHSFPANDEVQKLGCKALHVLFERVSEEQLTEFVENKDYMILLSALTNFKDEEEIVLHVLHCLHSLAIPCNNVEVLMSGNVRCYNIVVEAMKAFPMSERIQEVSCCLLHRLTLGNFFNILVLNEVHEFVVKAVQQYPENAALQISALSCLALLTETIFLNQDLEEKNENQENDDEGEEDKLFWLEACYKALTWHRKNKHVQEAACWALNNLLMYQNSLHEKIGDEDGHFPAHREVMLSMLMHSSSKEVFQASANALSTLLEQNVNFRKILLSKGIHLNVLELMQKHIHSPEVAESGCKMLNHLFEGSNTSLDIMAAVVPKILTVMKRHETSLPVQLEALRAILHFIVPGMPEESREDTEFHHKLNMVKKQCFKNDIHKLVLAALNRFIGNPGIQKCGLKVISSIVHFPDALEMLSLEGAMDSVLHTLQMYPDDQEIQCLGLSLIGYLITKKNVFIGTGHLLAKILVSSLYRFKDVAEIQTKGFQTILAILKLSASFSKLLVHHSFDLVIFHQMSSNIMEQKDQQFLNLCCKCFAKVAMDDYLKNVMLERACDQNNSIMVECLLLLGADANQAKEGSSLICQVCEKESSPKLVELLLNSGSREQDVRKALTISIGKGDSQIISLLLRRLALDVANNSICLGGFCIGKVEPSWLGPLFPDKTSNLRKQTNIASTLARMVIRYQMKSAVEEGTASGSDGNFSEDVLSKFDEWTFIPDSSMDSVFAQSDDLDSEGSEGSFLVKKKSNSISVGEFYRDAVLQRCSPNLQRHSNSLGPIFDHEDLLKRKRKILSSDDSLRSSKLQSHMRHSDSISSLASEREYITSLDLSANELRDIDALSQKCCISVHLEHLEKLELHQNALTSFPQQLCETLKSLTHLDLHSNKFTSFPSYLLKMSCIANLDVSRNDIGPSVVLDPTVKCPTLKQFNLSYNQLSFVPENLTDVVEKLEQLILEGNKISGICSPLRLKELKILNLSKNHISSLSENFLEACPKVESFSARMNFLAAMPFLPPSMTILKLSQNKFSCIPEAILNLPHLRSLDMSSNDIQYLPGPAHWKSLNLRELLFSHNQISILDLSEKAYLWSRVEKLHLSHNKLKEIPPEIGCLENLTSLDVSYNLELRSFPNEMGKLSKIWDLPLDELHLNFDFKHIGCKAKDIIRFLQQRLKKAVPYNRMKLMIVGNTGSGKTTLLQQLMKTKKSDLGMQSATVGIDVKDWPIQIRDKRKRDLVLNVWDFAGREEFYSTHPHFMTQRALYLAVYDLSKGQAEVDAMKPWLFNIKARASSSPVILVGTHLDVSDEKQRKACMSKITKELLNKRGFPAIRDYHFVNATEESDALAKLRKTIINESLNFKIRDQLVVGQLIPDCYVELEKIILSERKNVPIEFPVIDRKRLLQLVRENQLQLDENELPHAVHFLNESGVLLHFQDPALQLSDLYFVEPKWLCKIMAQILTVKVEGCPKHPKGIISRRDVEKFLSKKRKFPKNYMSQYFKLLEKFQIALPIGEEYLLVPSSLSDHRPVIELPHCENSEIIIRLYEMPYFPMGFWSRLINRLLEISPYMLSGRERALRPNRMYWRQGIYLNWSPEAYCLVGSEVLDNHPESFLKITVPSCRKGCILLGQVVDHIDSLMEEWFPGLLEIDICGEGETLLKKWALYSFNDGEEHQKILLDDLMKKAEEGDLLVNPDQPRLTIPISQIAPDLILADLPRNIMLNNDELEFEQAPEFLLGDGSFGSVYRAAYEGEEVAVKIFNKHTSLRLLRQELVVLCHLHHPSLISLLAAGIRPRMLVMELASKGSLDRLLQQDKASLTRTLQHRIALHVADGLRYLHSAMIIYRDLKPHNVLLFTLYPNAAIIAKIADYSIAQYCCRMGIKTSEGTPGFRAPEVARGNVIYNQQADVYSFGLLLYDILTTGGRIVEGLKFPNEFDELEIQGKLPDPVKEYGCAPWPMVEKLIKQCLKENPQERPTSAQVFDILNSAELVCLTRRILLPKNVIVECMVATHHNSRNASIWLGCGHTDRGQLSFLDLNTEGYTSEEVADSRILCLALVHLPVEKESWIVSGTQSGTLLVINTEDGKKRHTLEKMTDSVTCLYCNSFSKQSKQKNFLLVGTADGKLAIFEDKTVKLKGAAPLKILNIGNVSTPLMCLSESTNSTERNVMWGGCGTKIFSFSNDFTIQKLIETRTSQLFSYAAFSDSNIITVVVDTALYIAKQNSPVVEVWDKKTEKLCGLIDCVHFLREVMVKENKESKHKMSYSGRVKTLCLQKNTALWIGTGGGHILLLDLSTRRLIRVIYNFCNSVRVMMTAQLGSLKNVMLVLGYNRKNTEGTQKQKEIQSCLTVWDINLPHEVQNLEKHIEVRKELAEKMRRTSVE
Test [3] has as its target Rho-associated protein kinase 2 (Homo sapiens, UniProt O75116). In words: Inhibition of His6-tagged ROCK2 (2 to 543 residues) (unknown origin) using peptide as substrate incubated for 15 mins in presence of ATP by immunoblotting analysis.

Each structure is given as a SMILES string. pIC50: −log10 of the molar value.

Sequence of Rho-associated protein kinase 2 (O75116 whole entry, the tested form may be a part): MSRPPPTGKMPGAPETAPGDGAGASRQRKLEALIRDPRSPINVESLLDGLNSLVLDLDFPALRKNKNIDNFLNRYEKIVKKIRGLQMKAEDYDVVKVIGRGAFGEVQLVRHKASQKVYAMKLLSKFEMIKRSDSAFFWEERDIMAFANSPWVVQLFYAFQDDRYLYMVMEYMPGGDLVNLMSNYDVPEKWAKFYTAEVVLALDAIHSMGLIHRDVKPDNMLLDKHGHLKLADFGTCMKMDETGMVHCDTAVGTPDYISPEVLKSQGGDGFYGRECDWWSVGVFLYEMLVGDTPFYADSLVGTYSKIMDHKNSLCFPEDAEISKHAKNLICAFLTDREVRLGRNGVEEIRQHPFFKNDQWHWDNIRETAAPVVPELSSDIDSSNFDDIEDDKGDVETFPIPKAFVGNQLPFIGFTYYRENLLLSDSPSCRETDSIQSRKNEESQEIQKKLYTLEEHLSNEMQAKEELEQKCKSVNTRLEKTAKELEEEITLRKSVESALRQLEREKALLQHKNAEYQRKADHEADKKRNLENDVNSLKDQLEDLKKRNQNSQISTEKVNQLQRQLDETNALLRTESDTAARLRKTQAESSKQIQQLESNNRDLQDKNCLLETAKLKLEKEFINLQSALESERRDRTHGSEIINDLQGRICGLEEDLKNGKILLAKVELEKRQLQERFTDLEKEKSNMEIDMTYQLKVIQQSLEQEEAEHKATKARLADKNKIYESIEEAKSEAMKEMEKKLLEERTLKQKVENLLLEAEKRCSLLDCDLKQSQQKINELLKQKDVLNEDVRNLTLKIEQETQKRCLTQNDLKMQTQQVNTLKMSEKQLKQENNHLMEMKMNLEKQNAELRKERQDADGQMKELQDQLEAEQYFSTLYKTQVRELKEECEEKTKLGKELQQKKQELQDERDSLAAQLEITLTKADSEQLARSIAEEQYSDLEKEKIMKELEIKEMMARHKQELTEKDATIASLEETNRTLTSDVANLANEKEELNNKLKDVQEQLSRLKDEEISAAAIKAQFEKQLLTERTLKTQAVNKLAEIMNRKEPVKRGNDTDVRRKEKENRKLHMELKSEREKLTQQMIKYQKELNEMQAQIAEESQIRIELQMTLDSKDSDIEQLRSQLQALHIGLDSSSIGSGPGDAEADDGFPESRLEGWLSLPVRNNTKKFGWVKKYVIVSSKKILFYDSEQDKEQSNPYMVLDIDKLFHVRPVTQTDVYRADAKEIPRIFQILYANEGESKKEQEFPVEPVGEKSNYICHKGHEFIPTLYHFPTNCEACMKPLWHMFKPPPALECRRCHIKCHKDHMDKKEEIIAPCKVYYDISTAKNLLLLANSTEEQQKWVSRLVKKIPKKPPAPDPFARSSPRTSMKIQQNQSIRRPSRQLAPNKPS
Sequence of Leucine-rich repeat serine/threonine-protein kinase 2 (Homo sapiens, UniProt Q5S007) (Q5S007 whole entry, the tested form may be a part): as the sequence (Q5S007 whole entry G2019S, the tested form may be a part) above, with S2019G counted along it

In the case of `O=S(=O)(NCCNC/C=C/c1ccc(Br)cc1)Nc1cccc2cnccc12`, the results for the pIC50 in test [1], in test [2] and in test [3] were less than 5.00, less than 5.00 and 6.54, respectively.

Usually pIC50 stands for −log10 of the IC50, conventionally taken in molar units.

The values are drawn from ChEMBL document CHEMBL5705888, “Substrate specificity and inhibitors of LRRK2, a protein kinase mutated in Parkinson's disease” (Biochem J, 2009).
